Measured values as given in patent US20220079876A1, “OCULAR IMPLANT CONTAINING A TYROSINE KINASE INHIBITOR” (Ocular Therapeutix, Inc., priority 2020, published 2022).
Values after ≈ are worked out from the molar mass of the structure shown.

How the values were obtained:
[1] = Rugo et al. 2005; cited from earlier work
[2] = In vitro axitinib release under non-sink simulated physiological conditions; format: physicochemical; details: pH 7.2, aqueous buffer, thermodynamic from solid; PBS from control implant release after 20 or 30 days at 37° C.
Experimental: Three exemplarily selected implant formulations were examined (Table 1). Implant variants #1 and 2 were examined using one implant, implant variant #3 using one and two implants (four conditions in total). All conditions were conducted in duplicate.
In vitro released and non-released axitinib was determined for each group without (control) and with daily release media sampling.
For control implant release, samples were placed in tubes. Five mL of PBS (pH 7.2) were added to each tube on day 0 and the tubes were covered with a lid. Samples were then placed in a 37° C. incubator and gently rocked for 20 (1× implant #3) or 30 days (implant #1 and #2, 2× implant #3). At the end of the test period, the PBS was removed (1 mL PBS was saved for testing). One mL of ethanol was added to the residual sample. Both PBS samples and residual samples were tested for axitinib amount released.
For daily implant release, samples were placed in tubes. Five mL of PBS were added to each tube on day 0 and the tubes were covered with a lid. Samples were then placed in a 37° C. incubator and rocked gently. After 24 hours, 4 mL of PBS were removed from each sample from which 1 mL was used for testing and the remaining 3 mL were disposed. Four mL of fresh PBS were added back into each tube. This process was repeated for 20 (1× implant #3) or 30 days (implant #1 and #2, 2× implant #3). […]

[3] = system: VEGF-induced vascular leakage; assay: VEGF challenge, vascular leakage scored by fluorescein angiography; format: in vivo, Dutch belted rabbits; details: rabbit; 1.25 mg Avastin intravitreal only (group 3)
[4] = 1.25 mg intravitreal dose (Sinapis et al., 2011); cited from earlier work
[5] = in vivo; cited from earlier work

CNC(=O)c1ccccc1Sc1ccc2c(/C=C/c3ccccn3)n[nH]c2c1 [axitinib, N-methyl-2-[3-((E)-2-pyridin-2-yl-vinyl)-1H-indazol-6-ylsulfanyl]-benzamide]
Clearance half-life (t1/2) [1]: a few hours
solubility [2]: 0.24 to 0.4 µg/mL (≈ 0.621 to 1.03 µM)

Avastin®: anti-VEGF therapeutic
Duration of effect post injection [3]: ≤ 3 months
Vascular leakage after VEGF challenge, after 3 months [3]: vascular leakage re-occurred
Half-life in rabbits [4]: 158 h

aflibercept: anti-VEGF agent, aflibercept injection by Regeneron
t1/2 in the human eye [5]: several days

ranibizumab: anti-VEGF agent, ranibizumab injection by Genentech
t1/2 in the human eye [5]: several days
